The nature of assay [1]: cAMP pathway inhibition in counterscreen cell line – TR-FRET cAMP detection, counter-screen for MC4R biased antagonist project, dose response (AID 602305).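 Further: U2OS cells stimulated with forskolin near its EC80 as the cAMP inducer; potency is for inhibition of forskolin-stimulated cAMP signaling.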 The class given is functional, cell-based. Background: A counterscreen serves to expose hits that act by an unwanted route or on another target.
The target of assay [2] is Melanocortin receptor 4 (Homo sapiens, UniProt P32245). In words: inhibitors of MC4R cAMP signaling – cell-based, TR-FRET, biased antagonists, dose response (AID 602298).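 Further: antagonist potency against agonist-stimulated cAMP production.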 The class given is functional. In general terms: TR-FRET usually uses a lanthanide donor and a delayed reading to cut background.
Melanocortin receptor 4, sequence (P32245 whole entry): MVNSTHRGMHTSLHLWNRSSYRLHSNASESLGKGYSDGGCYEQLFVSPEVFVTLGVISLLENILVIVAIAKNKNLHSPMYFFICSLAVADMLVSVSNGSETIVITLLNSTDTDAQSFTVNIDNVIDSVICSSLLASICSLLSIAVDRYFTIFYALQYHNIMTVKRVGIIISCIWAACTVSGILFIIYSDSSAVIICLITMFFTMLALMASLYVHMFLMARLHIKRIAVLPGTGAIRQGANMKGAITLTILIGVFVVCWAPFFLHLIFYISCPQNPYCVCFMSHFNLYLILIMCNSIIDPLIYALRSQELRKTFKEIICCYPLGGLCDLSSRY
Assay [3] deals with Potassium voltage-gated channel subfamily KQT member 2 (Rattus norvegicus, UniProt O88943, W236L). In words: potentiation of rat KCNQ2 current – cell-based, automated electrophysiology, mechanism study for KCNQ2 potentiator project, dose response (AID 2603). The class given is functional.
Potassium voltage-gated channel subfamily KQT member 2, sequence (O88943 whole entry W236L): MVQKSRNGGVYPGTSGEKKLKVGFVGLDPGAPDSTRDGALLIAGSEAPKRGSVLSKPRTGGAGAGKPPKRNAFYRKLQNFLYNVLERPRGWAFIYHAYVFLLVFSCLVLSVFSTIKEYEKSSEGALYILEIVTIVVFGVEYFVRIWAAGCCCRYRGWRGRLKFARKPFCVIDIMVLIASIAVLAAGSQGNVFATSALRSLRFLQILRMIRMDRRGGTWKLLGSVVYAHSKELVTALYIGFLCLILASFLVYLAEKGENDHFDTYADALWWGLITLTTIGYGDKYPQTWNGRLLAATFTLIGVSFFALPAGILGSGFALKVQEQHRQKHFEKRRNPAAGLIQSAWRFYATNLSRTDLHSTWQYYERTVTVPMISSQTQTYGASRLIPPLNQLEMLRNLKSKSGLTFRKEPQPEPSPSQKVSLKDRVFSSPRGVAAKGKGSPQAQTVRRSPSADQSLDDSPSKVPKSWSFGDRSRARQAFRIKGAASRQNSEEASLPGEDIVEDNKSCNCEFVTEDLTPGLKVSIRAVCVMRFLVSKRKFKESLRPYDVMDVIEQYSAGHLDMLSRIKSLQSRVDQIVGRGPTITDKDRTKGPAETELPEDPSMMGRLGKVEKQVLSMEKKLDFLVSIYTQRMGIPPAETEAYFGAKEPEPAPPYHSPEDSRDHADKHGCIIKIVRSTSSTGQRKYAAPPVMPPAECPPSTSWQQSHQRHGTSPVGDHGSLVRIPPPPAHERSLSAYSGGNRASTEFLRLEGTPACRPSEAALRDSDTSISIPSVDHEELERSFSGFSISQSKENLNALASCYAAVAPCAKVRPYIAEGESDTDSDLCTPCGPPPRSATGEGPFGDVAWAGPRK
Assay [4] deals with Ion channel NompC (Danio rerio, UniProt Q7T1G6). The assay is described as follows: Fluorescence counterscreen assay for TRPML3 agonists: dose response cell-based high-throughput screening assay to identify agonists of the transient receptor potential channel N1 (TRPN1). [Related pubchem assays: 1526, 1424, 1448 ]. The class given is functional.
Ion channel NompC, sequence (Q7T1G6 whole entry): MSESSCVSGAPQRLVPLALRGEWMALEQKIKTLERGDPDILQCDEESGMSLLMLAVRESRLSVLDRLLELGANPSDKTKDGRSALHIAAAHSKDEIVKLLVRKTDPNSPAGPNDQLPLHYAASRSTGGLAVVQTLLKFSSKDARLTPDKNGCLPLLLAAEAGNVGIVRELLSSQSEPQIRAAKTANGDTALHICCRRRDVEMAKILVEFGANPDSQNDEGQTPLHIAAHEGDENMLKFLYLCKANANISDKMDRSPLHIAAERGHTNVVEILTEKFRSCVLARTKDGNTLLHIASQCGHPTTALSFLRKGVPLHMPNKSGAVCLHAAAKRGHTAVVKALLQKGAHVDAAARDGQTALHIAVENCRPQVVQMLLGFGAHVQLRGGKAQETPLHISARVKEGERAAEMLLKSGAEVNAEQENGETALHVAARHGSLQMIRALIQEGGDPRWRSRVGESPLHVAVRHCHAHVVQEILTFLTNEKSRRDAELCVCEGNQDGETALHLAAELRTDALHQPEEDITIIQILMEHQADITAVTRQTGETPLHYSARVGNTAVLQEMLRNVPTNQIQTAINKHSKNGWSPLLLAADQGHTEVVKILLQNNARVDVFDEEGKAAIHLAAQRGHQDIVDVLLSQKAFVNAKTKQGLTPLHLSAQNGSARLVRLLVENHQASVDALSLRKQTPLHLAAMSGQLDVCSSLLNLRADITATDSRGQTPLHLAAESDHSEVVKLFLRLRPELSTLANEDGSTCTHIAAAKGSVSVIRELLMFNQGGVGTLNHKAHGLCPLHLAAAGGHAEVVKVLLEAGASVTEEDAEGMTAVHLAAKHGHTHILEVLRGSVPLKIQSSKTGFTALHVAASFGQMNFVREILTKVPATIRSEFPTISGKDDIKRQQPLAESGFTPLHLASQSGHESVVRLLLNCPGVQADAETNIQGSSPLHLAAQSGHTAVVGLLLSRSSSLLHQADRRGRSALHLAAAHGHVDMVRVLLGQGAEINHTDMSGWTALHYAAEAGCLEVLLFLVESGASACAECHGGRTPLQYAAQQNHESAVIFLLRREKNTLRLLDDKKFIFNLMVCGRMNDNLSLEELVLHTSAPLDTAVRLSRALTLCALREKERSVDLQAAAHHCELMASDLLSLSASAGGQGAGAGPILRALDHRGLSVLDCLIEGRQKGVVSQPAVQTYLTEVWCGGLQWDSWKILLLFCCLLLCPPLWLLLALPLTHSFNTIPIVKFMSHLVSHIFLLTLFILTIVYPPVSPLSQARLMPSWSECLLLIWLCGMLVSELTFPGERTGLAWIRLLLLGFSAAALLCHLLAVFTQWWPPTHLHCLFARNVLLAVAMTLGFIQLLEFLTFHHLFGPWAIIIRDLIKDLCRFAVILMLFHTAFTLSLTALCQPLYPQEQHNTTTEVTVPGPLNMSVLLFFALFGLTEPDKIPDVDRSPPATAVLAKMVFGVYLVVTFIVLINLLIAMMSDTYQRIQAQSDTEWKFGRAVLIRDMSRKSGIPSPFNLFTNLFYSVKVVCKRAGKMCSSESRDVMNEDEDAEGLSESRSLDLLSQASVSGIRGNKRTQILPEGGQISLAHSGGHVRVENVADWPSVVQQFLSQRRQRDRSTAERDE
Assay [5] concerns the target Mucolipin-3 (Homo sapiens, UniProt Q8TDD5). The assay is described as follows: Dose response cell-based high-throughput screening assay for agonists of the transient receptor potential channel ML3 (TRPML3). [Related pubchem assays: 1526, 1424, 1448 ]. The class given is functional.
The test system of assay [6] is Vero. In words: cells. The class given is functional. As to conditions: Chlorocebus sabaeus.
Assay [7] is described as follows: A High Throughput Confirmatory Assay used to Identify Novel Compounds that Inhibit Mycobacterium Tuberculosis in the absence of Glycerol. The class given is functional.
The nature of assay [8]: microbe, parasite or virus in culture. Conditions: Mycobacterium tuberculosis. It is filed as functional.
Assay [9] addresses T1, Leucine aminopeptidase (Plasmodium falciparum 3D7, UniProt Q8IL11).
T1 sequence (Q8IL11 whole entry): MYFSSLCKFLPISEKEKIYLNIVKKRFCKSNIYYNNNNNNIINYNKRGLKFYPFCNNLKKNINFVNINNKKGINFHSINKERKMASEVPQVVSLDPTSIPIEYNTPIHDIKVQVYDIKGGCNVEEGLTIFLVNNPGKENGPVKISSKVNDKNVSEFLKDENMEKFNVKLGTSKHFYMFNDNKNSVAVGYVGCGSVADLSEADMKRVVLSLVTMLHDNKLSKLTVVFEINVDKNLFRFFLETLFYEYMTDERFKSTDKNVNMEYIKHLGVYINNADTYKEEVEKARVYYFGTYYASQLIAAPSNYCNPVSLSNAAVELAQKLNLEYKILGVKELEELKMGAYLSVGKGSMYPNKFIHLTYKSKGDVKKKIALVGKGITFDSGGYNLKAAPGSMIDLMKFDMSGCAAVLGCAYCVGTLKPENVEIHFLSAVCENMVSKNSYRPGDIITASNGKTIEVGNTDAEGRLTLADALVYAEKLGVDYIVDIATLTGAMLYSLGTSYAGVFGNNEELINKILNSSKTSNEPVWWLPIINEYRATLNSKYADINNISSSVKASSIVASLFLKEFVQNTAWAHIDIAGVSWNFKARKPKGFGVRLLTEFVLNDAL
In words: P. falciparum M17LAP inhibitors, primary screen, biochemical, fluorogenic H-Leu-NHMec substrate, 1536-well (AID 1619). It is filed as functional.

Assay [10] is described as follows: mitochondrial function rescue without frataxin homolog – Friedreich's ataxia, plus single-dose screen, dose response (AID 1465).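 Further: yeast depleted of Yfh1p frataxin homolog grown on glycerol needing respiration; WST-1 tetrazolium dye reduction as measure of cellular dehydrogenase metabolic activity.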 It is filed as functional.

Active and inactive are the calls of the source.

Mucolipin-3, sequence (Q8TDD5 whole entry): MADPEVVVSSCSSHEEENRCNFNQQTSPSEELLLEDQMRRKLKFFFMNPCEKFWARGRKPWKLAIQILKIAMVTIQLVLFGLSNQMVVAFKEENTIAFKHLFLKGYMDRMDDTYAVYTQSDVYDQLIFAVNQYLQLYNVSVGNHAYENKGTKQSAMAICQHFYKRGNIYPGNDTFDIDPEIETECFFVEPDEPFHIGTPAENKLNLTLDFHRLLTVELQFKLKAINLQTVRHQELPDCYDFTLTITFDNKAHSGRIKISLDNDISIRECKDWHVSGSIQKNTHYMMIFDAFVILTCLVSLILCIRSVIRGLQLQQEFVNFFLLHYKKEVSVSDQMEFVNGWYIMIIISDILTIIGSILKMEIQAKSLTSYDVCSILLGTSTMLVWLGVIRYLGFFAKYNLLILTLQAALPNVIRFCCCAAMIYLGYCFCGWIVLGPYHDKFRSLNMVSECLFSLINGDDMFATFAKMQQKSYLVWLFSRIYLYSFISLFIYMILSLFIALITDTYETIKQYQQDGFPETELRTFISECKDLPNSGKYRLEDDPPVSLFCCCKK

As for `COC(=O)CSc1[nH]c2ccc(F)cc2c1[N+](=O)[O-]`, the IC50 in [1] and in assay [2] was > 64.6 µM (inactive) in each case. The EC50 (in general, the midpoint of the concentration-response curve) in assay [3] is 0.17 µM (active).
On to `COC(=O)c1c(NC(=O)COC(=O)[C@@H](NS(=O)(=O)c2ccc(C)cc2)C(C)C)sc2c1CCC2`, for which the EC50 was > 29.9 µM (not active) in assay [4] and 2.8 µM (active) in [5].
In the case of `CC(C(Sc1ccccc1N)c1ccccc1)[N+](=O)[O-]` (stereo not given), the CC50 in assay [6] is 16.6 µM (active); in [8] it was 32.6 µM (active). Also, the IC50 (usually the concentration that inhibits the measured activity by half) in assay [7] was > 100 µM (active).
With `N#C/C(=C\c1ccc(N2CCOCC2)o1)C(=O)N1CCOCC1`, in [9], the IC50 was 99.7 µM (active). In [10], the EC50 is > 100 µM (active).

Source of the values: ChEMBL document CHEMBL1201862, “PubChem BioAssay data set” (2004).
